{"source": "patent US20240082221A1", "about": "“COMPOSITIONS AND METHODS FOR THE IDENTIFICATION OF COMPOUNDS THAT PROTECT AGAINST LIPOFUSCIN CYTOTOXICITY” (priority 2021, published 2024)", "key": {"CHOP": {"test_system": "CHOP", "test": "Western blot of CHOP upregulation (UPR, downstream of PERK)", "format": "cell-based, Human", "conditions": "cells incubated with A2E", "protocol": "Immunoblotting. Total cell lysates were extracted using RIPA lysis buffer (50 mM TrisHCl, Ph 8.0, 150 mM NaCl, 1% NP40, 0.5% Sodium Deoxycholate, 0.1% SDS, protease-phosphatase inhibitor) after the incubation of the specific sample group in a 48 well plate. Sonication or syringing (20 times) was done followed by centrifugation at 12,000×g for 10 mins and the supernatant was collected and stored in −80° C. Proten concentration from homogenates were assessed by Pierce Rapid Gold BCA protein assay kit (ThermoFisher Scientific, cat.no. A53225). Then 30 μg of protein was analyzed by standard SDS-PAGE gel. Samples were mixed 4:1 (v:v) with Nupage loading buffer with or without 8% 0-mercaptoethanol and heated for 10 min at 72° C. SDS-PAGE was done using 4-12% Nupage gel and buffer (Life, NP0335BOX). Next, SDS-PAGE gel was transferred to nitrocellulose membrane (Whatman, PROTAN BA83) overnight at 20V. The following day, 5% milk in TBS was used for 2 h blocking the membrane and then primary antibody was added in TBST (TBS, 0.1% Tween-20) for overnight at 4° C. Next day membranes were washed and incubated for 2 hours at room temperature with HRP conjugated secondary antibody (cat #G21234, Invitrogen) at 1:10,000 dilution. After 3 more washed membranes were probed with enhanced chemiluminescence (ECL) reagent and detected using an X-ray films for chemiluminescence image (GE healthcare, RPN2106). Scanning/imaging and quantitation of the image was done using silverfast 8 application software and Fiji Image J. Antibodies for Western blotting were list in FIG. 10."}, "ARPE19 cells": {"test_system": "ARPE19 cells", "test": "ATR-induced light-independent cell death", "format": "cell-based, Human", "conditions": "pre-treatment with 33 μM", "excerpt": "Overall, these indicate that necroptosis is a specific readout of ocular lipofuscin toxicity, easily distinguishable from the poisonous effects of ATR."}, "phospho-MLKL": {"test_system": "phospho-MLKL", "test": "Intravitreal treatment of DKO mice, phospho-MLKL immunostaining of retina", "format": "in vivo, ABCA4−/− RDH8−/− double knock-out mice (DKO)", "protocol": "(§1) Animals. Pigmented ABCA4^−/− RDH8^−/− double knock-out mice (DKO), free of rd8 mutation, were purchased from Jackson laboratories and every 10 generations were in house backcrossed to the C57BL6J control strain, to prevent genetic drifts. Genotyping was performed at Transnetyx (Memphis, TN). Only mice with ABCA4, RDH8, RPE65-Leu450 but no crb1 mutations (retinal degeneration slow) were maintained in the colony. Controls C57BL/6J (Rpe65-Leu450, crb1negative) were also Jackson's lab. All mice were housed at Weill Cornell Medicine's animal facility under a 12 h light (˜10 lux)/12 h dark cycle environment or under complete darkness. Experimental manipulations in the dark were done under dim red light transmitted through a Kodak No. 1 safelight filter (transmittance >560 nm). No retinal degeneration or necroptosis markers were appreciably detected in 20 months or older C57BL6/N (Rpe65-Met450, crb1 positive) obtained from the NAI/NIH. All animal procedures and experiments were approved by the Animal Care and Use Committee of Weill Cornell Medical College in agreement with the guidelines established by the NIH Office of Laboratory Animal Welfare and the Association of Research for Vision and Ophthalmology (ARVO) statement for the use of animals in ophthalmic research.\nRPE and Neural retina flat mounts. Mouse eyes were enucleated and placed in 4% PFA in PBS for 1 h at room temperature. After fixing, a 23G needle was used to make a hole at the limbus area and iris scissors used to cut around the circumference of the limbus, remove the cornea, iris and lens, separate the neuronal retina and sclera by micro-forceps. Neuronal retina and RPE layer were dissected out and incubated with blocking buffer (1% BSA and 0.3% Triton-X-100 in PBS) for at least 20 min. Primary antibodies were added to the blocking buffer and kept at 4° C. overnight. Retina and RPE layer were washed and incubated with secondary antibodies for at least 30 min at room temperature, then washed with PBS three times. Under the dissection microscope, retina or RPE layer was cut into a four-leaf clover shape and mount on the slides in mount medium (EMS glycerol mounting medium with DAPI and DABCO, cat. No. 17989-61). Slides were stored at 4° C. until imaging.\nCryosections and Immunofluorescence staining. Mouse eyes were fixed with 4% PFA and penetrated with 30% sucrose overnight at 4° C., then cryopreserved in Tissue-Tek OCT compound (Sakura Finetek, Torrance, CA, USA) and cut into 15 μm sections. Sections were blocked with 1% BSA and 0.1% Triton-X-100 PBS, and then immunofluorescence staining was performed using standard methods and the appropriate dilutions of primary antibodies against p- p-MLKL (cell signaling), XBP1s (Biogend), Iba-1 (Abcam), CD11b (Millipore), Lamp2 (hybridoma bank), CellRox and DRAQ7 (Invitrogen), Rhodopsin (Abcam), phalloidin-CF660 (Biotium, cat.no. 0052), Hoechst33324, caspase3 (clone9664, Cell signaling). Subsequently, slides were incubated with Alexa-647, Alexa-594 secondary antibodies, and counterstained with Hoechst33324. Negative controls were included in each staining, and slides were mounted with anti-fade mount medium. Slides were stored at 4° C. before analysis on SD microscope using Zen software. For paraffin sections, mouse eyes were embedded in paraffin and cut into 5-μm sections. […]\n(§2) Pharmacological treatment of mice. […] The exact volume of Mock reagent or Kira6 was determined by 10 μl Hamilton syringe. […]"}, "[1]": {"test_system": "activated microglia/macrophages", "test": "Intravitreal treatment of DKO mice, subretinal microglia/macrophage infiltration", "format": "in vivo, ABCA4−/− RDH8−/− double knock-out mice (DKO)", "protocol": "as §1, with “research. […]” for “research.”\nas §2"}}}
{"smiles": "N=C1S/C(=C\\c2cn[nH]c2-c2ccc(F)cc2)C(=O)N1c1nccs1", "note": "[Nec7, Necrostatin 7]", "values": [{"measurement": "effect on LF-induced upregulation of CHOP / UPR", "setting": "CHOP", "result": "completely abrogated"}, {"measurement": "effect on cell death by ATR", "setting": "ARPE19 cells", "result": "did not block cell death"}, {"measurement": "membrane and cytosolic pMLKL labeling in RPE flat mounts", "setting": "phospho-MLKL; 12 month old DKOs, single intraocular injection, analyzed one week later", "result": "reduced to undetectable levels"}, {"measurement": "membrane and cytosolic phospho-MLKL staining in RPE flat mounts", "setting": "phospho-MLKL; 26-month-old DKO mice, 2 μl intraocular, a week later", "result": "reduced membrane and cytosolic phospho-MLKL staining to undetectable levels"}, {"measurement": "phospho-MLKL (necroptosis) labeling in neuroretina-flat mounts", "setting": "phospho-MLKL; DKO mice, intraocular, 1 week earlier", "result": "significantly reduced"}, {"measurement": "infiltration of CD11b cells in the subretinal space", "setting": "[1]; RPE-flat mounts from 25- to 27-month-old DKO mice", "result": "reduced the infiltration of CD11b cells"}]}
{"smiles": "CC(C)(C)c1nc(-c2ccc(NC(=O)Nc3cccc(C(F)(F)F)c3)c3ccccc23)c2c(N)nccn12", "note": "[KIRA6]", "values": [{"measurement": "necroptosis, intracellular and plasma membrane pMLKL labelling in RPE flat mounts", "setting": "phospho-MLKL; 26 month old DKO mice, intraocular, a week later", "result": "abrogated necroptosis"}, {"measurement": "pMLKL/XBP1s double positive cells (RPE and microglia)", "setting": "phospho-MLKL; demelanized paraffin cross-sections, 20 month old DKOs, control 33%", "result": 4, "unit": "%"}, {"measurement": "Iba-1+ cells attached to the apical side of RPE", "setting": "[1]; RPE-flat mounts, center to periphery", "result": "No Iba-1+ cells were detected"}]}
